The subject of test [1] is PHAMI (littleseed canarygrass). Description: Post-Emergent Test III (Wheat and Barley). To be noted: for Visual Growth Reduction (%) 21 Days After Application, PHAMI: postemergence; for GR50, PHAMI: effective dose for growth reduction of 50 percent; for GR50, PHAMI / GR80, PHAMI / GR90, PHAMI: probit analysis; for GR80, PHAMI: effective dose for growth reduction of 80 percent; for GR90, PHAMI: effective dose for growth reduction of 90 percent. In kind it is in vivo, Phalaris minor. The procedure:
(§1) Seeds of the desired test plant species were planted in Sun Gro MetroMix® 306 planting mixture, which typically has a pH of 6.0 to 6.8 and an organic matter content of about 30 percent, in plastic pots with a surface area of 103.2 square centimeters (cm^2). When required to ensure good germination and healthy plants, a fungicide treatment and/or other chemical or physical treatment was applied. The plants were grown for 7-36 days in a greenhouse with an approximate 14 h photoperiod which was maintained at about 18° C. during the day and 17° C. during the night. Nutrients and water were added on a regular basis and supplemental lighting was provided with overhead metal halide 1000-Watt lamps as necessary. The plants were employed for testing when they reached the second or third true leaf stage.
(§2) A weighed amount, determined by the highest rate to be tested, of each test compound was placed in a 25 mL glass vial and was dissolved in 4 mL of a 97:3 v/v mixture of acetone and DMSO to obtain concentrated stock solutions. […] The concentrated stock solutions obtained were diluted with 20 mL of an aqueous mixture containing acetone, water, isopropyl alcohol, DMSO, Agri-Dex crop oil concentrate, and X-77 surfactant in a 48:39:10:1.5:1.5:0.02 v/v ratio to obtain spray solutions containing the highest application rates. Additional application rates were obtained by serial dilution of 12 mL of the high rate solution into a solution containing 2 mL of 97:3 v/v mixture of acetone and DMSO and 10 mL of an aqueous mixture containing acetone, water, isopropyl alcohol, DMSO, Agri-Dex crop oil concentrate, and X-77 surfactant in a 48:39:10:1.5:1.5:0.02 v/v ratio to obtain ½×, ¼×, ⅛× and 1/16× rates of the high rate. Compound requirements are based upon a 12 mL application volume at a rate of 187 liters per hectare (L/ha). Formulated compounds were applied to the plant material with an overhead Mandel track sprayer equipped with 8002E nozzles calibrated to deliver 187 L/ha over an application area of 0.503 square meters at a spray height of 18 inches (43 cm) above the average plant canopy height. Control plants were sprayed in the same manner with the solvent blank.
(§3) The treated plants and control plants were placed in a greenhouse as described above and watered by subirrigation to prevent wash-off of the test compounds. After 21 dAYS, the condition of the test plants as compared with that of the untreated plants was determined visually and scored on a scale of 0 to 100 percent where 0 corresponds to no injury and 100 corresponds to complete kill and presented as indicated in Table A.
(§4) By applying the well-accepted probit analysis as described by J. Berkson in Journal of the American Statistical Society, 48, 565 (1953) and by D. Finney in “Probit Analysis” Cambridge University Press (1952), herbicidal injury of a specific compound at various rates can be used to calculate GR10, GR20, GR50, GR80 and GR90 values, which are defined as growth reduction factors that correspond to the effective dose of herbicide required to provide plant growth reduction (GR) of 10 percent, 20 percent, 50 percent, 80 percent and 90 percent, respectively. Probit analysis was applied to data collected from multiple dose rates of individual compounds utilizing the procedures explained in the following examples. The analysis of those dose rates is captured in the following tables.

The subject of a further test is BROTE (downy brome). The test can be described thus: Post-Emergent Test III (Wheat and Barley). Format: in vivo, Bromus tectorum. To be noted: for Visual Growth Reduction (%) 21 Days After Application, BROTE: postemergence; for GR50, BROTE: effective dose for growth reduction of 50 percent; for GR50, BROTE / GR80, BROTE / GR90, BROTE: probit analysis; for GR80, BROTE: effective dose for growth reduction of 80 percent; for GR90, BROTE: effective dose for growth reduction of 90 percent. As for the experimental part: as §1, §2, §3, §4

For test [2], the system named is IPOSS (IPOHE: ivyleaf morningglory (Ipomoea hederecea)). The test can be described thus: Post-Emergent Test I. In kind it is in vivo. To be noted: postemergence. As for the experimental part:
(§5) Post-Emergent Test I Seeds test species were obtained from commercial suppliers and planted into a 13 centimeter (cm) diameter-round pot containing soil-less media mix (Metro-Mix 360®, Sun Gro Horticulture). Postemergence treatments were planted 8-12 days prior to application and cultured in a greenhouse equipped with supplemental light sources to provide a 16 hour (h) photoperiod at 24-29° C. All pots were surface irrigated.
(§6) A weighted amount, determined by the highest rate to be tested, of each compound was dissolved in 1.3 mL acetone-dimethyl sulfoxide (DMSO; 97:3, volume per volume (v/v)) and diluted with 4.1 mL water-isopropanol-crop oil concentrate (78:20:2, v/v/v) containing 0.02% Triton X-155 to obtain concentrated stock solutions. Additional application rates were obtained by serial dilution of the high rate solution into a solution containing appropriate volume of 97:3 v/v mixture of acetone and DMSO and appropriate volume of an aqueous mixture of water, isopropyl alcohol, crop oil concentrate (78:20:2, v/v/v) containing 0.02% Triton X-155.
(§7) Formulated compounds were applied using a DeVilbiss® compressed air sprayer at 2-4 pounds per square inch (psi). Following treatment, pots were returned to the greenhouse for the duration of the experiment. All pots were sub-irrigated as need to provide optimum growing conditions. All pots were fertilized one time per week by subirrigating with Peters Peat-Lite Special® fertilizer (20-10-20).
(§8) All evaluations were made visually on a scale of 0 to 100 where 0 represents no activity and 100 represents complete plant death and presented as indicated in Table A. Visual assessments of plant injury were made based on growth reduction, discoloration, leaf deformity and necrosis

For test [3], the system named is AVEFA: wild oats (Avena fatua). Description: Post-Emergent Test I. Format: in vivo. The following applies: postemergence. As for the experimental part:
as §5, §6, §7, §8

For test [4], the system named is AMARE: redroot pigwseed (Amaranthus retroflexus). Description: Post-Emergent Test I. In kind it is in vivo. To be noted: postemergence. The procedure:
as §5, §6, §7, §8

The test system of test [5] is SETFA: giant foxtail (Setaria faberi). The test can be described thus: Post-Emergent Test I. To be noted: postemergence. In kind it is in vivo. The procedure:
as §5, §6, §7, §8

For test [6], the system named is ECHSS (ECHCG: barnyardgrass (Echinochloa crus-galli)). Description: Post-Emergent Test I. In kind it is in vivo. The following applies: postemergence. As for the experimental part:
as §5, §6, §7, §8

Test [7] has as its system HELAN: sunflower (Helianthus annuus). The test can be described thus: Post-Emergent Test I. In kind it is in vivo. The following applies: postemergence. As for the experimental part: as §5, §6, §7, §8

SMILES strings stand for the structures.

On to `COC(=O)c1nc(-c2ccc(Cl)c(F)c2C)cc(N)c1Cl` [Compound 73], for which the “Visual Growth Reduction (%) 21 Days After Application, PHAMI” value is recorded as “D (60-74)” in test [1] (35 g ai/ha), “D (60-74)” in test [1] (70 g ai/ha) and “C (75-84)” in test [1] (140 g ai/ha). Moreover, the “GR50, PHAMI” value in test [1] worked out at 40 g ai/ha. Moreover, the “GR80, PHAMI” value in test [1] is 107 g ai/ha. In addition, the “GR90, PHAMI” value in test [1] was above 140 g ai/ha. In addition, the “Visual Growth Reduction (%) 21 Days After Application, BROTE” value is “E (45-59)” with BROTE (downy brome) (35 g ai/ha), “D (60-74)” in the test with BROTE (downy brome) (70 g ai/ha) and “D (60-74)” in the test with BROTE (downy brome) (140 g ai/ha). Besides, the “GR50, BROTE” value in the test with BROTE (downy brome) turned out to be 59 g ai/ha. For the same compound, in the test with BROTE (downy brome), the “GR80, BROTE” value is above 140 g ai/ha. Also, the “GR90, BROTE” value with BROTE (downy brome) is listed as above 140 g ai/ha.

For the compound `COC(=O)c1nc(-c2ccc(C(F)(F)F)nc2)cc(N)c1Cl` [Compound 4], in test [2] (4 kg ai/ha), the “Visual Growth Reduction (%) 14 Days After Application, IPOSS” value is given as “A (95-100)”. Moreover, the “Visual Growth Reduction (%) 14 Days After Application, AVEFA” value in test [3] (4 kg ai/ha) is on record as “B (85-94)”. For the same compound, in test [4] (4 kg ai/ha), the “Visual Growth Reduction (%) 14 Days After Application, AMARE” value is “A (95-100)”. Further, the “Visual Growth Reduction (%) After Application, SETFA” value in test [5] (4 kg ai/ha) is listed as “A (95-100)”. In test [6] (4 kg ai/ha), the “Visual Growth Reduction (%) 14 Days After Application, ECHSS” value is “C (75-84)”. Also, the “Visual Growth Reduction (%) 14 Days After Application, HELAN” value in test [7] (4 kg ai/ha) is given as “A (95-100)”.

For the compound `Nc1c(F)c(-c2ccc(C(F)(F)F)nc2)nc(C(=O)O)c1Cl` [Compound 46, 4-amino-5-chloro-3-fluoro-6′-(trifluoromethyl)-[2,3′-bipyridine]-6-carboxylic acid], the “Visual Growth Reduction (%) 21 Days After Application, PHAMI” value in test [1] (35 g ai/ha) is reported as “B (85-94)”. Also, the “Visual Growth Reduction (%) 21 Days After Application, PHAMI” value in test [1] (70 g ai/ha) was “B (85-94)”. Further, the “Visual Growth Reduction (%) 21 Days After Application, PHAMI” value in test [1] (140 g ai/ha) is “B (85-94)”. In addition, in test [1], the “GR50, PHAMI” value is 15 g ai/ha; the “GR80, PHAMI” value is recorded as 24 g ai/ha; the “GR90, PHAMI” value was 31 g ai/ha. Further, the “Visual Growth Reduction (%) 21 Days After Application, BROTE” value in the test on BROTE (downy brome) (35 g ai/ha) was “E (45-59)”. Also, the “Visual Growth Reduction (%) 21 Days After Application, BROTE” value in the test on BROTE (downy brome) (70 g ai/ha) was “D (60-74)”. Also, the “Visual Growth Reduction (%) 21 Days After Application, BROTE” value in the test on BROTE (downy brome) (140 g ai/ha) is “B (85-94)”. Further, in the test with BROTE (downy brome), the “GR50, BROTE” value stood at 42 g ai/ha; the “GR80, BROTE” value came to 93 g ai/ha; the “GR90, BROTE” value is listed as 140 g ai/ha.

For the compound `Cc1c(-c2cc(N)c(Cl)c(C(=O)O)n2)ccc(Cl)c1F` [Compound 52], the “Visual Growth Reduction (%) 21 Days After Application, PHAMI” value in test [1] (35 g ai/ha) was “C (75-84)”. For the same compound, the “Visual Growth Reduction (%) 21 Days After Application, PHAMI” value in test [1] (70 g ai/ha) is “B (85-94)”. Also, the “Visual Growth Reduction (%) 21 Days After Application, PHAMI” value in test [1] (140 g ai/ha) is recorded as “B (85-94)”. In test [1], the “GR50, PHAMI” value was determined as 18 g ai/ha; the “GR80, PHAMI” value is 38 g ai/ha; the “GR90, PHAMI” value came out at 56 g ai/ha. Also, the “Visual Growth Reduction (%) 21 Days After Application, BROTE” value with BROTE (downy brome) (35 g ai/ha) is given as “G (0-29)”. Besides, the “Visual Growth Reduction (%) 21 Days After Application, BROTE” value in the test with BROTE (downy brome) (70 g ai/ha) is given as “F (30-44)”. Moreover, the “Visual Growth Reduction (%) 21 Days After Application, BROTE” value with BROTE (downy brome) (140 g ai/ha) is on record as “D (60-74)”. For the same compound, in the test on BROTE (downy brome), the “GR50, BROTE” value amounted to 98 g ai/ha; the “GR80, BROTE” value is above 140 g ai/ha; the “GR90, BROTE” value is above 140 g ai/ha.

Consider `COC(=O)c1nc(-c2ccc(Cl)nc2F)cc(N)c1Cl` [Compound 17, methyl 4-amino-5,6′-dichloro-2′-fluoro-[2,3′-bipyridine]-6-carboxylate], for which the “Visual Growth Reduction (%) 14 Days After Application, IPOSS” value in test [2] (3.8 kg ai/ha) is on record as “A (95-100)”. The “Visual Growth Reduction (%) 14 Days After Application, AVEFA” value in test [3] (3.8 kg ai/ha) is “F (30-44)”. The “Visual Growth Reduction (%) 14 Days After Application, AMARE” value in test [4] (3.8 kg ai/ha) is “C (75-84)”. Moreover, in test [5] (3.8 kg ai/ha), the “Visual Growth Reduction (%) After Application, SETFA” value was “B (85-94)”. In test [6] (3.8 kg ai/ha), the “Visual Growth Reduction (%) 14 Days After Application, ECHSS” value is given as “F (30-44)”. Besides, in test [7] (3.8 kg ai/ha), the “Visual Growth Reduction (%) 14 Days After Application, HELAN” value is recorded as “A (95-100)”.
